The source made the active and inactive calls.
Columns and labels:
[1] = cells; type: functional, cell-based
[2] = target: T1, Nuclear receptor subfamily 0 group B member 1 (Homo sapiens, UniProt P51843); type: functional, cell-based;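 further: HEK293T cells transfected with SF-1 and DAX-1 plus StAR promoter luciferase reporter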
T1 sequence (P51843 whole entry): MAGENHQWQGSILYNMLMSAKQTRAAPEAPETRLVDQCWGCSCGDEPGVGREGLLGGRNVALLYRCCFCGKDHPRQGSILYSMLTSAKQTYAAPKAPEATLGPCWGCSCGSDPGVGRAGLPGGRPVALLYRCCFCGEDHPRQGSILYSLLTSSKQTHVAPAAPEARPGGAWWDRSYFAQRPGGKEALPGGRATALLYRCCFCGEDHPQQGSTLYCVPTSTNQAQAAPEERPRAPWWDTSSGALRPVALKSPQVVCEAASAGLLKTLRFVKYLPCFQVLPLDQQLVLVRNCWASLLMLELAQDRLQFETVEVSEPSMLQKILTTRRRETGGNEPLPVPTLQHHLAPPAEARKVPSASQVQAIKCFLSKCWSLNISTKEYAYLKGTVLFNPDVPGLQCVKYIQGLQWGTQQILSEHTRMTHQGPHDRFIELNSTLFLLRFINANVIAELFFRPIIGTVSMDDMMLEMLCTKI

[3] = system: Vero; test: viability loss in Vero cells – cell-based, plate reader, cherry-pick samples, cytotoxicity control, dose response (AID 687020); type: functional; settings: Chlorocebus sabaeus
[4] = target: T2, Sentrin-specific protease 1 (Homo sapiens, UniProt Q9P0U3); test: SENP1 catalytic domain blockers, concentration series – biochemical, kinetic FRET, dose response (AID 651697); type: functional; settings: read-out: IC50_Mean
T2 sequence (Q9P0U3 whole entry): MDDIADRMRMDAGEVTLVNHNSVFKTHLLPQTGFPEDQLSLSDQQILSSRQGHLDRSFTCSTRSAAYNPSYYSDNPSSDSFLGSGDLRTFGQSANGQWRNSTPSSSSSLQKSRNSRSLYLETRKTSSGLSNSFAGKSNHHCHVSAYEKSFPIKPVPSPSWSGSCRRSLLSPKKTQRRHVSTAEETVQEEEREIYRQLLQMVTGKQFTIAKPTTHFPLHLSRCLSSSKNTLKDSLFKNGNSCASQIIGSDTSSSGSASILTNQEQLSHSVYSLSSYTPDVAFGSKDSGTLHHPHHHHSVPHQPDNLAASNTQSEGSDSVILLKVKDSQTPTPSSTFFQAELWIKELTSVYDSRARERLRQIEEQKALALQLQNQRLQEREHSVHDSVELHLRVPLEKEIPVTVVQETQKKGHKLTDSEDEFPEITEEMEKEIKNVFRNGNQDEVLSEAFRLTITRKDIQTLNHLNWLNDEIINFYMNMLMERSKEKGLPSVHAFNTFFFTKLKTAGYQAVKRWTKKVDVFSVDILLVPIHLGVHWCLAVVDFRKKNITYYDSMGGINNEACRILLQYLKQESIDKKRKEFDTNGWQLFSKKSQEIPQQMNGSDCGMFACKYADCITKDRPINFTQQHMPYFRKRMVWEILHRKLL

[5] = target: T2, Sentrin-specific protease 1; test: Dose response confirmation of small molecule inhibitors of the catalytic domain of the SUMO protease, SENP1 in a FRET assay.; type: functional; settings: read-out: IC50_Mean
[6] = target: T3, Trace amine-associated receptor 1 (Homo sapiens, UniProt Q96RJ0); test: Fluorescence-based cell-based high throughput dose response assay to identify agonists of the human trace amine associated receptor 1 (TAAR1).; type: functional
T3 sequence (Q96RJ0 whole entry): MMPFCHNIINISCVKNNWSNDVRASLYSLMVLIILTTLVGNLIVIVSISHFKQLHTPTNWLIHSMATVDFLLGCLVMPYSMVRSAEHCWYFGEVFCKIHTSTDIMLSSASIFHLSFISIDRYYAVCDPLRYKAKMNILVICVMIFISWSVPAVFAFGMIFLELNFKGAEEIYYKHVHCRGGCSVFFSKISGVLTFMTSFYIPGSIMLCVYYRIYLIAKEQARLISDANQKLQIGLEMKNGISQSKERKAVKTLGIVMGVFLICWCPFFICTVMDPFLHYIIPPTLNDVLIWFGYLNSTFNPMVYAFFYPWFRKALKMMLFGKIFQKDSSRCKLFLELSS

[7] = target: T3, Trace amine-associated receptor 1; test: Counterscreen for agonists of the human trace amine associated receptor 1 (hTAAR1): Fluorescence-based cell-based high throughput dose response assay to identify hTAAR1 agonist that also desensitize TAAR1 receptor response.; type: functional
[8] = cells; type: functional, cell-based; remark: listed apart in the source
[9] = cells; type: functional, cell-based; remark: listed apart in the source
[10] = target: T4, Small ubiquitin-related modifier 1 (Homo sapiens, UniProt P63165); test: SUMO1 protein interaction blockers, potency – biochemical, fluorescence polarization, uHTS hits, dose response (AID 624382); type: functional; settings: read-out: IC50_Mean
[11] = Luminescence Cell-Based Dose Retest to Confirm Inhibitors of Cancer Stem Cells. [Related pubchem assays (depositor defined):AID2717, AID2721]; type: functional; settings: Homo sapiens
[12] = target: T4, Small ubiquitin-related modifier 1; test: SUMO1 protein-protein binding blockers, potency – biochemical, FRET, dose response (AID 624383); type: functional; settings: read-out: IC50_Mean
[13] = viability loss in HeLa cells – cytotoxicity control for MgcRacGAP inhibitor project, dose response (AID 624300); type: functional
[14] = target: T5, Rac GTPase-activating protein 1 (Homo sapiens, UniProt Q9H0H5); test: blockers of MgcRacGAP-driven Rac1 GTP hydrolysis – biochemical, ADP Hunter fluorescence, primary and confirmatory, confirmation (AID 624330); type: functional
T5 sequence (Q9H0H5 whole entry): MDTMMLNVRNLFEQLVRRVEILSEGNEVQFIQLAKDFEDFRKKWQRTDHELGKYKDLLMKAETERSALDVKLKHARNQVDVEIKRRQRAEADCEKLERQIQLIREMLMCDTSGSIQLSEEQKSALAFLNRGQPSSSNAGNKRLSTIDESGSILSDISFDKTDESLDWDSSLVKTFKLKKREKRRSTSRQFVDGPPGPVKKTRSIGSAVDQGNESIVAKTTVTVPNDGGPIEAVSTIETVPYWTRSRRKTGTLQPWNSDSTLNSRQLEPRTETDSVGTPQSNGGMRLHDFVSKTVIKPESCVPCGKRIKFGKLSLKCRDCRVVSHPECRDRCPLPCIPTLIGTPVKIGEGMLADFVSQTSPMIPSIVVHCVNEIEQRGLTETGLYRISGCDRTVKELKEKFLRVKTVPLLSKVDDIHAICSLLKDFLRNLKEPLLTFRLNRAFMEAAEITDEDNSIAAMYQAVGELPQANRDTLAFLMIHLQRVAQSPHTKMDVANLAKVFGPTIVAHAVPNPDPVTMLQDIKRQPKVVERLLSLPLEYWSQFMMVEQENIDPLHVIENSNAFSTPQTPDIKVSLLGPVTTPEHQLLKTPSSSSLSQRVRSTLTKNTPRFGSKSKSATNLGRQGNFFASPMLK

[15] = system: Streptococcus; test: GAS UMAA2166 growth inhibition – luminescence, BacTiterGlo, counter-screen for streptokinase expression inhibitor project, dose response (AID 1915); type: functional, organism-based;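 further: potency for reduction of bacterial viability or growth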
[16] = target: T6, Streptokinase A (Streptococcus pyogenes serotype M1, UniProt P10520); test: viability-normalized secreted streptokinase activity reduction – plasminogen activation absorbance, OD405, dose response (AID 1914); type: functional, Streptococcus pyogenes M1 GAS;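 further: secreted streptokinase activity via plasminogen activation per viability signal from cell pellet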
T6 sequence (P10520 whole entry): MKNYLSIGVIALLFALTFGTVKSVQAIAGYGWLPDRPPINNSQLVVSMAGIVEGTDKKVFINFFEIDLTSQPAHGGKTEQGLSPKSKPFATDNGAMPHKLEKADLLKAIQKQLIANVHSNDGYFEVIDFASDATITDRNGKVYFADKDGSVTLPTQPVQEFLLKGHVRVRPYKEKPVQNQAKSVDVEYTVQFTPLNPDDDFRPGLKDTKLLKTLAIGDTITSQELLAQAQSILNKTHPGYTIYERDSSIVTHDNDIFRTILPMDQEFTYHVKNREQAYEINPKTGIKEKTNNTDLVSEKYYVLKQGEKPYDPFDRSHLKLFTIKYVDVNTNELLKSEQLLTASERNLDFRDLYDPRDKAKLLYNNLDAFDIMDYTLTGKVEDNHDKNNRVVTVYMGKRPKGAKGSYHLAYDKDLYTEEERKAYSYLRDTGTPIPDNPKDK

[17] = target: T7, DNA repair protein RAD52 homolog (Homo sapiens, UniProt P43351); type: functional, biochemical
T7 sequence (P43351 whole entry): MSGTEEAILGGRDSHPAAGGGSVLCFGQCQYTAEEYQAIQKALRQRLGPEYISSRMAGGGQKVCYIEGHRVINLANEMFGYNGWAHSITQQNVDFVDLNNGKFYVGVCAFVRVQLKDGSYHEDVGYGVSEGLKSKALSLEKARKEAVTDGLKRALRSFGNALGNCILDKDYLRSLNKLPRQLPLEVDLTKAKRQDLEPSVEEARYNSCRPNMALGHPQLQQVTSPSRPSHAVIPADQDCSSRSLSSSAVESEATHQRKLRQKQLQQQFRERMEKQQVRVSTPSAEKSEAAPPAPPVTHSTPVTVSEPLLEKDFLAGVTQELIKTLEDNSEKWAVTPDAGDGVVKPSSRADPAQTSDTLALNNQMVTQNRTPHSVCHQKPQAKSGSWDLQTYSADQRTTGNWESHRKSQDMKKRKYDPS

[18] = target: SWI/SNF-related matrix-associated actin-dependent regulator of chromatin subfamily A member 2 (Homo sapiens, UniProt P51531); test: Luminescence-based cell-based high throughput dose response assay to identify activators of the function of SWI/SNF related, matrix associated, actin dependent regulator of chromatin, subfamily a, member 2 (SMARCA2, BRM).; type: functional
[19] = Counterscreen for activators of the function of SWI/SNF related, matrix associated, actin dependent regulator of chromatin, subfamily a, member 2 (SMARCA2, BRM): Luminescence-based cell-based high throughput dose response assay to identify non-selective compounds using the VP16 reporter assay.; type: functional
[20] = system: Vero; test: cells; type: functional, cell-based; settings: Chlorocebus sabaeus
[21] = target: T8, Aminopeptidase N (Plasmodium falciparum FcB1/Columbia, UniProt O96935); test: malaria alanyl aminopeptidase activity blockers – biochemical, fluorogenic H-Leu-NHMec substrate, 1536-well (AID 1445); set-up: species or system Plasmodium falciparum 3D7, 3D7
T8 sequence (O96935 whole entry): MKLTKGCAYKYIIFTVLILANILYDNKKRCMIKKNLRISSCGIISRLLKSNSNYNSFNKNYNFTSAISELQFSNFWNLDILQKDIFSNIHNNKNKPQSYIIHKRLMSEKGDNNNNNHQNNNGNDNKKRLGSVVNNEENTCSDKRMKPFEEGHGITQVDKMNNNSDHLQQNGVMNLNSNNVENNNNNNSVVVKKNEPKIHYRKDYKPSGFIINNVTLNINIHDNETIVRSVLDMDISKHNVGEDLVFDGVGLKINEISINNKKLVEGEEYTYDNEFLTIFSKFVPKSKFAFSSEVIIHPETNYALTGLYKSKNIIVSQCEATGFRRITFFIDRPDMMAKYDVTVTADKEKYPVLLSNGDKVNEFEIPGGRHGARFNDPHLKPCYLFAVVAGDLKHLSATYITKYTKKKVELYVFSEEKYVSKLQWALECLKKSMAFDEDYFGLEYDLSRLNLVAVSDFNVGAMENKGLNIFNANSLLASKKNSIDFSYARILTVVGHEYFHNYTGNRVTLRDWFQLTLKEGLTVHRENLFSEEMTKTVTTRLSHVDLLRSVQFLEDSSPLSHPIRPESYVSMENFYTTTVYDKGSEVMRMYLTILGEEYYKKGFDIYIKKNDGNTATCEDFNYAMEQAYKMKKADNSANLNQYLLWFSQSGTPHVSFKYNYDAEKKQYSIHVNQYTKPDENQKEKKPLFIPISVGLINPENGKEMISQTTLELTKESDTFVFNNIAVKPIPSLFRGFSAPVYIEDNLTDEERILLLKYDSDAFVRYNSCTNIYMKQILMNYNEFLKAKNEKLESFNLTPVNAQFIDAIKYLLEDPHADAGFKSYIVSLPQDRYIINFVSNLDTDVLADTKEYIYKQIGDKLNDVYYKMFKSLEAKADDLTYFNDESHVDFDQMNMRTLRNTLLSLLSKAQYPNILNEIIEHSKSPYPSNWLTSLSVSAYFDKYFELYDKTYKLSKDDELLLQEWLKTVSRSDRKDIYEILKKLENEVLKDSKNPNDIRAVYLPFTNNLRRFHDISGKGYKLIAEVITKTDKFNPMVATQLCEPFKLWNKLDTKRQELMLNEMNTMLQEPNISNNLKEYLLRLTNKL

T4 sequence (P63165 whole entry): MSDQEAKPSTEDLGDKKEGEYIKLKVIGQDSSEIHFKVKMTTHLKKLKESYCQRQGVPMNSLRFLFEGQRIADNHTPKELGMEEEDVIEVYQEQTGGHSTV
Chain of SWI/SNF-related matrix-associated actin-dependent regulator of chromatin subfamily A member 2 (P51531 whole entry): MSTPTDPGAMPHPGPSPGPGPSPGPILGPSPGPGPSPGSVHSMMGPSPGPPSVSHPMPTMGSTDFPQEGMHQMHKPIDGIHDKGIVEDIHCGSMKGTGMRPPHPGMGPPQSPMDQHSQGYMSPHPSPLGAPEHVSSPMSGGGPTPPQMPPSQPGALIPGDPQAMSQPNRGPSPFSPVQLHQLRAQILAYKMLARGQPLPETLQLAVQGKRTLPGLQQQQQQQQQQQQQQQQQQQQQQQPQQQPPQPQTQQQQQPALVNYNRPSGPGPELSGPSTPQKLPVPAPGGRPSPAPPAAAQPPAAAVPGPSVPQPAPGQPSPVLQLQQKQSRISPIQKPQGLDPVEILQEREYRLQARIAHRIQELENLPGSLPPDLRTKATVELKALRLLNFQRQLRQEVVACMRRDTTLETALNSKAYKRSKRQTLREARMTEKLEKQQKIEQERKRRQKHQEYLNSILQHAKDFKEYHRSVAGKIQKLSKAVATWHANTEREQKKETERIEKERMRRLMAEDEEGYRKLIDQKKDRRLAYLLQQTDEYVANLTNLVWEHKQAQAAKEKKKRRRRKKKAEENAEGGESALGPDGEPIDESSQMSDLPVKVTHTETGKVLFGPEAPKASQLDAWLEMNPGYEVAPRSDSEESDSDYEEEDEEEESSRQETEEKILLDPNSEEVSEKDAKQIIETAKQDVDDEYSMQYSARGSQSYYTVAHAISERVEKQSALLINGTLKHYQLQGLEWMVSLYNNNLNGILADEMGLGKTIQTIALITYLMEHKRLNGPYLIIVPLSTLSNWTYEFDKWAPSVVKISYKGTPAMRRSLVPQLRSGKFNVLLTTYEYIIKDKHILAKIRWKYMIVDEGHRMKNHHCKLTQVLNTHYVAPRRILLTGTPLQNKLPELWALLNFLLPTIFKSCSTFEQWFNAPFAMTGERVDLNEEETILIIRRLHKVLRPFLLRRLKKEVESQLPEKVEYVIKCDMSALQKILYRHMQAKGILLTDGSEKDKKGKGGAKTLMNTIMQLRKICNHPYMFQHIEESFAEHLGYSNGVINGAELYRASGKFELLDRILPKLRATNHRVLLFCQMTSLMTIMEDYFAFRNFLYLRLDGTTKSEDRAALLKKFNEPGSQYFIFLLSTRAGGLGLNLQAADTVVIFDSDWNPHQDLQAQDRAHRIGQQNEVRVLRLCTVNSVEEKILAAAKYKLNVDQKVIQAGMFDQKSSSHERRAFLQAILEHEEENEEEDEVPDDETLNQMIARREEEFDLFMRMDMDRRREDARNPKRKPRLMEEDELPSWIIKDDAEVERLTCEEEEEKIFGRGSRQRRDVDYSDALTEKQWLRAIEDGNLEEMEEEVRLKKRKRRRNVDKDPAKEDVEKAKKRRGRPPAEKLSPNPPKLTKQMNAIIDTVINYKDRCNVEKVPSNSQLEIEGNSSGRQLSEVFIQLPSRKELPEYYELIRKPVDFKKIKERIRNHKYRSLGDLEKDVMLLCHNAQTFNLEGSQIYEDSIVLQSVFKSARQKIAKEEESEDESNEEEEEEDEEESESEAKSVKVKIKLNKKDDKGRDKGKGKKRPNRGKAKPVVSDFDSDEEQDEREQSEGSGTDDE

Cc1cc(C)c2nc(NC(=O)c3ccco3)sc2c1
IC50 [1]: > 67.5 µM (inactive) | IC50 [2]: > 0.278 µM (active)

CCOc1ccccc1-c1nnc(CS(=O)(=O)c2ccccc2)o1
AC50 [3]: 23.9 µM (active)

CCN(CC)c1nc2cc(C)ccc2cc1/C=C(\C#N)C(N)=O
IC50 [4]: 17.3 µM (active) | IC50 [5]: 20 µM (inactive)

COc1cccc(N2CN(CCc3ccccc3)CN=C2S)c1
EC50 [6]: 0.758 µM (active) | IC50 [7]: 3.52 µM (active) | IC50 [8]: > 29.9 µM (inactive) | EC50 [9]: > 29.9 µM (inactive)

O=C(O)c1cccc(S(=O)(=O)NNc2ccccc2C(F)(F)F)c1
IC50 [10]: > 66.6 µM (inactive) | AC50 [11]: 10.8 µM (active) | IC50 [12]: 9.06 µM (active)

CN(C(=O)C1CCC(=O)N(Cc2cccc(F)c2)C1)C1CCCCC1 (stereo not given)
IC50 [1]: > 67.6 µM (inactive) | IC50 [2]: > 67.6 µM (inactive)

Fc1ccc(CNc2ccc(N3CCN(Cc4ccccc4)CC3)cc2)cc1
CC50 [13]: 98.7 µM (active) | IC50 [14]: 15.4 µM (active)

O=C(Nc1cccc(-c2nc3ccccc3[nH]2)c1)c1ccc(C(=O)Nc2cccc(-c3nc4ccccc4[nH]3)c2)cc1
IC50 [10]: > 66.6 µM (inactive) | IC50 [12]: 6.29 µM (active) | EC50 [15]: 61.9 µM (active) | EC50 [16]: > 150 µM (not active)

COc1ccc(-c2nc3c(C(=O)NCCN(C)C)cccc3c3ccccc23)cc1
AC50 [17]: 2.89 µM (active) | EC50 [18]: > 91.2 µM (inactive) | EC50 [19]: > 91.2 µM (inactive)

O=C(C[C@H]1C(=O)N(Cc2ccccc2)C[C@@H]1Cc1ccccc1)Nc1ccc(Br)cc1
AC50 [3]: 31.4 µM (active)

Cn1ccc(C(=O)N/N=C/c2c[nH]c3ccccc23)n1
EC50 [18]: > 91.2 µM (inactive) | EC50 [19]: > 91.2 µM (inactive)

O=C(N/N=C(\CC(=O)c1cccs1)C(F)(F)F)c1ccncc1
IC50 [4]: 38 µM (inactive) | IC50 [20]: 24.8 µM (active) | IC50 [5]: 10.1 µM (active) | IC50 [21]: 48.8 µM (active)
